Experimental data from ChEMBL document CHEMBL1153813, “Synthesis of biotinylated OSW-1” (Bioorg Med Chem Lett, 2009).

Columns and labels:
Format in all cases: functional, cell-based
[1] = Antiproliferative activity against human WM35 cells after 72 hrs by MTT assay; conditions: WM35, 72 h
A-375 = experiment: Antiproliferative activity against human A375 cells after 72 hrs by MTT assay; conditions: A-375, 72 h
ASPC1 = experiment: Antiproliferative activity against human AsPC1 cells after 72 hrs by MTT assay; conditions: ASPC1, 72 h
HL-60 = experiment: Antiproliferative activity against human HL60 cells after 72 hrs by MTT assay; conditions: HL-60, 72 h
PANC-1 = experiment: Antiproliferative activity against human PANC1 cells after 72 hrs by MTT assay; conditions: PANC-1, 72 h

**Q.** What does the source list for `COc1ccc(C(=O)O[C@H]2[C@H](O[C@@H]3[C@@H](O)[C@H](O[C@H]4C[C@H]5[C@@H]6CC=C7C[C@@H](OC(=O)CCCCCCCNC(=O)CCCC[C@@H]8SC[C@@H]9NC(=O)N[C@@H]98)CC[C@]7(C)[C@H]6CC[C@]5(C)[C@@]4(O)[C@H](C)C(=O)CCC(C)C)OC[C@@H]3O)OC[C@@H](O)[C@@H]2O)cc1`?
**A.** IC50 [1]: 200 pM; IC50 (A-375): 200 pM; IC50 (ASPC1): 700 pM; IC50 (HL-60): 100 pM; IC50 (PANC-1): 1100 pM
